# Paper PMC8087116 (European journal of pharmaceutical sciences : official …, 2017)
# Columns and labels:
# HL-60-TB = experiment: NCI-60 screening, leukemia HL-60-TB; type: cell-based, human
# [1] = tested on: NCI-60 human tumor cell lines; settings: for Inhibition against one or more cell lines: single dose 10 μM
# HOP-62 = experiment: NCI-60 screening, NSCL HOP-62; type: cell-based, human
# NCI-H23 = experiment: NCI-60 screening, NSCL NCI-H23; type: cell-based, human
# MOLT-4 = experiment: NCI-60 screening, leukemia MOLT-4; type: cell-based, human
# HOP-92 = experiment: NCI-60 screening, NSCL HOP-92; type: cell-based, human
# PC-3 = experiment: NCI-60 screening, prostate PC-3; type: cell-based, human
# CCRF-CEM = experiment: NCI-60 screening, leukemia CCRF-CEM; type: cell-based, human
# MDA-MB-468 = experiment: NCI-60 screening, breast MDA-MB-468; type: cell-based, human
# COLO-205 = experiment: NCI-60 dose-response, colon COLO-205; type: cell-based, human; settings: COLO-205 colon cancer cell line, five-concentration dose-response
# SW-620 = experiment: NCI-60 dose-response, colon SW-620; type: cell-based, human; settings: SW-620 colon cancer cell line, five-concentration dose-response
# SR cell line = experiment: NCI-60 dose-response, leukemia SR; type: cell-based, human; settings: five-concentration dose-response
# MDA-MB-231/ATCC = experiment: NCI-60 dose-response, breast MDA-MB-231/ATCC; type: cell-based, human; settings: MDA-MB-231/ATCC breast cancer cell line, five-concentration dose-response
# LOX IMVI = experiment: NCI-60 dose-response, melanoma LOX IMVI; type: cell-based, human; settings: LOX IMVI melanoma cell line, five-concentration dose-response
# MALME-3 M = experiment: NCI-60 dose-response, melanoma MALME-3 M; type: cell-based, human; settings: MALME-3 M melanoma cell line, five-concentration dose-response
# M14 = experiment: NCI-60 dose-response, melanoma M14; type: cell-based, human; settings: M14 melanoma cell line, five-concentration dose-response
# SK-MEL-5 = experiment: NCI-60 dose-response, melanoma SK-MEL-5; type: cell-based, human; settings: SK-MEL-5 melanoma cell line, five-concentration dose-response
# RPMI-8226 = experiment: NCI-60 screening, leukemia RPMI-8226; type: cell-based, human
compound,measurement,setting,value
COC(=O)[C@H](NS(=O)(=O)N(c1cccc(F)c1)C1CCN(Cc2ccc(F)cc2)CC1)C(C)C [Compound 18],Inhibition of sensitive tumor cell lines at 10 μM conc.,HL-60-TB,Leukemia: HL-60-TB (56%)
same,Inhibition against one or more cell lines,[1],> 50%
CC(C)[C@@H](NS(=O)(=O)N(c1cccc(F)c1)C1CCN(Cc2ccc(O)cc2)CC1)C(=O)O [Compound 19],Inhibition of sensitive tumor cell lines at 10 μM conc.,HOP-62,88%
same,Inhibition of sensitive tumor cell lines at 10 μM conc.,NCI-H23,58%
same,Inhibition against one or more cell lines,[1],> 50%
COC(=O)[C@@H](CC(C)C)NS(=O)(=O)N(c1cccc(F)c1)C1CCN(Cc2ccc(C(F)(F)F)cc2)CC1 [Compound 25],Inhibition of sensitive tumor cell lines at 10 μM conc.,MOLT-4,56%
same,Inhibition of sensitive tumor cell lines at 10 μM conc.,HOP-92,60%
same,Inhibition of sensitive tumor cell lines at 10 μM conc.,PC-3,50%
same,Inhibition against one or more cell lines,[1],> 50%
COC(=O)[C@@H](C)CNS(=O)(=O)N(c1cc(C(F)(F)F)cc(C(F)(F)F)c1)C1CCN(Cc2ccc(F)cc2)CC1 [Compound 26],GI50,"CCRF-CEM; CCRF-CEM leukemia cell line, five-concentration dose-response",12.8 µM
same,GI50,"MDA-MB-468; MDA-MB-468 breast cancer cell line, five-concentration dose-response",3.25 µM
same,GI50,COLO-205,1.88 µM
same,GI50,SW-620,11.1 µM
same,GI50,SR cell line,3.18 µM
same,GI50,MDA-MB-231/ATCC,12.7 µM
same,GI50,LOX IMVI,8.1 µM
same,GI50,MALME-3 M,6.89 µM
same,GI50,M14,3.75 µM
same,GI50,SK-MEL-5,3.19 µM
same,"Cytotoxicity as indicated by LC50 values, words",[1],not cytotoxic for most of the cell lines
same,GI50,[1]; all remaining subpanel cell lines of NCI-60,≤ 21 µM
same,"TGI (total growth inhibition, cytostatic activity), words","[1]; dose-response, NCI-60 panel",total growth inhibition of most of the cell lines at moderate concentrations
COC(=O)[C@@H](NS(=O)(=O)N(c1ccc(F)cc1)C1CCN(C(=O)c2ccc(F)cc2)CC1)C(C)C [Compound 36],Inhibition of sensitive tumor cell lines at 10 μM conc.,HL-60-TB,Leukemia: HL-60-TB (57%)
same,Inhibition against one or more cell lines,[1],> 50%
COC(=O)[C@H](NS(=O)(=O)N(c1ccc(F)cc1)C1CCN(Cc2ccc(F)cc2)CC1)C(C)C [Compound 37],Inhibition of sensitive tumor cell lines at 10 μM conc.,HL-60-TB,Leukemia: HL-60-TB (60%)
same,Inhibition against one or more cell lines,[1],> 50%
COC(=O)[C@@H](OC(=O)NS(=O)(=O)N(c1ccc(F)cc1)C1CCN(Cc2ccc(F)cc2)CC1)C(C)C [Compound 39],Inhibition against one or more cell lines,[1],> 50%
O=S(=O)(c1ccc(Br)cc1)N(c1cccc(F)c1)C1CCN(Cc2ccc(F)cc2)CC1 [Compound 49],Inhibition of sensitive tumor cell lines at 10 μM conc.,"CCRF-CEM; 10 μM, Leukemia CCRF-CEM",51%
same,Inhibition of sensitive tumor cell lines at 10 μM conc.,RPMI-8226,65%
same,Inhibition of sensitive tumor cell lines at 10 μM conc.,"MDA-MB-468; 10 μM, Breast MDA-MB-468",53%
same,Inhibition against one or more cell lines,[1],> 50%
